{"source": "patent US6160004A", "about": "“C-10 carbon-substituted artemisinin-like trioxane compounds having antimalarial, antiproliferative and antitumor activities” (priority 1998, dated 2000)", "key": {"[1]": {"test_system": "CCRF-CEM", "assay": "cells", "format": "cell-based", "conditions": "Homo sapiens, 48 h; for CC50: read-out: Log10 LC50 (converted)"}, "[2]": {"test_system": "HL-60(TB)", "assay": "cells", "format": "cell-based", "conditions": "Homo sapiens, HL-60, 48 h"}, "[3]": {"test_system": "A549/ATCC", "assay": "NCI 60 cell line panel screening assay (SRB), A549/ATCC", "format": "cell-based", "conditions": "Homo sapiens, non-small cell lung cancer, 48 h, read-out: Log10 GI50 (converted)"}, "[4]": {"test_system": "NCI-H522", "assay": "cells", "format": "cell-based", "conditions": "Homo sapiens, NCI-H522, 48 h"}, "[5]": {"test_system": "HCT-116", "assay": "cells", "format": "cell-based", "conditions": "Homo sapiens, HCT-116, 48 h"}, "[6]": {"test_system": "HT29", "assay": "cells", "format": "cell-based", "conditions": "Homo sapiens"}, "[7]": {"test_system": "LOX IMVI", "assay": "cells", "format": "cell-based", "conditions": "Homo sapiens, 48 h, read-out: Log10 GI50 (converted)"}, "[8]": {"test_system": "OVCAR-4", "assay": "cells", "format": "cell-based", "conditions": "Homo sapiens"}, "[9]": {"test_system": "786-0", "assay": "cells", "format": "cell-based", "conditions": "Homo sapiens, 786-0, 48 h, read-out: Log10 GI50 (converted)"}, "[10]": {"test_system": "TK-10", "assay": "cells", "format": "cell-based", "conditions": "Homo sapiens; for CC50: read-out: Log10 LC50 (converted)"}, "[11]": {"test_system": "UO-31", "assay": "NCI 60 cell line panel screening assay (SRB), UO-31", "format": "cell-based", "conditions": "Homo sapiens, UO-31, renal cancer, 48 h"}, "[12]": {"test_system": "DU-145", "assay": "cells", "format": "cell-based"}, "[13]": {"test_system": "MDA-MB435", "assay": "NCI 60 cell line panel screening assay (SRB), MDA-MB435", "format": "cell-based", "conditions": "Homo sapiens, MDA-MB-435, 48 h"}, "[14]": {"test_system": "chloroquine-sensitive P. falciparum (NF54)", "assay": "In vitro antimalarial activity ([3H]hypoxanthine incorporation)", "format": "cell-based", "conditions": "Plasmodium falciparum; chloroquine-sensitive P. falciparum NF54, in vitro"}, "[15]": {"test_system": "MOLT-4", "assay": "cells", "conditions": "Homo sapiens; for IC50: MOLT-4, read-out: concentration for primary growth inhibition (PG +50)"}, "[16]": {"test_system": "T-47D", "assay": "NCI 60 cell line panel screening assay (SRB), T-47D", "conditions": "Homo sapiens, T47D, 48 h; for CC50: read-out: Log10 LC50 (converted)"}, "[17]": {"test_system": "SF-295", "assay": "cells", "format": "cell-based", "conditions": "Homo sapiens"}, "[18]": {"test_system": "SF-539", "assay": "cells", "format": "cell-based", "conditions": "Homo sapiens, SF-539, 48 h, read-out: Log10 LC50 (converted)"}, "[19]": {"test_system": "MALME-3M", "assay": "cells", "format": "cell-based", "conditions": "Homo sapiens, MALME-3M, melanoma, 48 h"}, "[20]": {"test_system": "SK-MEL-2", "assay": "cells", "format": "cell-based", "conditions": "Homo sapiens, SK-MEL-2, 48 h, read-out: Log10 LC50 (converted)"}, "[21]": {"test_system": "OVCAR-5", "assay": "cells", "format": "cell-based", "conditions": "Homo sapiens"}, "[22]": {"test_system": "RXF 393", "assay": "cells", "format": "cell-based", "conditions": "Homo sapiens"}, "[23]": {"test_system": "MCF7/ADR-RES", "assay": "cells", "format": "cell-based", "conditions": "Homo sapiens"}, "[24]": {"test_system": "MDA-MB231/ATCC", "assay": "cells", "format": "cell-based", "conditions": "Homo sapiens, MDA-MB-231, breast cancer, 48 h"}, "[25]": {"test_system": "MDA-N", "assay": "NCI 60 cell line panel screening assay (SRB), MDA-N", "format": "cell-based", "conditions": "Homo sapiens, breast cancer, 48 h"}, "[26]": {"test_system": "M14", "assay": "NCI 60 cell line panel screening assay (SRB), M14", "conditions": "Homo sapiens, M14, 48 h"}, "[27]": {"conditions": "read-out: Log10 GI50 (converted)"}, "[28]": {"conditions": "read-out: Log10 LC50 (converted)"}, "[29]": {"conditions": "MOLT-4, 48 h, read-out: Log10 LC50 (converted)"}, "[30]": {"conditions": "MOLT-4, read-out: concentration for cytotoxicity (PG -50)"}, "[31]": {"conditions": "read-out: Log10 TGI (converted)"}}, "note": "Read-outs that look alike come from different tables or passages of the source.", "data": [{"smiles": "CC1CCC2C(C)C(CC(=O)c3ccc(C(=O)CC4OC5OC6(C)CCC7C(C)CCC(C4C)C57OO6)cc3)OC3OC4(C)CCC1C32OO4", "note": "(centres unmarked) [Dimer 38]", "values": [{"measurement": "GI50", "setting": "[1]; [27]", "value": "< 0.01", "unit": "µM"}, {"measurement": "CC50", "setting": "[1]", "value": "> 100", "unit": "µM"}, {"measurement": "GI50", "setting": "[2]; [27]", "value": "< 0.01", "unit": "µM"}, {"measurement": "CC50", "setting": "[2]; [28]", "value": "> 100", "unit": "µM"}, {"measurement": "GI50", "setting": "[3]", "value": "< 0.01", "unit": "µM"}, {"measurement": "GI50", "setting": "[4]; [27]", "value": "< 0.01", "unit": "µM"}, {"measurement": "CC50", "setting": "[4]; [28]", "value": "> 100", "unit": "µM"}, {"measurement": "GI50", "setting": "[5]; [27]", "value": "< 0.01", "unit": "µM"}, {"measurement": "GI50", "setting": "[6]; HT-29, 48 h, read-out: Log10 GI50 (converted)", "value": "< 0.01", "unit": "µM"}, {"measurement": "GI50", "setting": "[7]", "value": "< 0.01", "unit": "µM"}, {"measurement": "IC (TGI)", "setting": "[8]; OVCAR-4, 48 h, read-out: Log10 TGI", "value": "> 100", "unit": "µM"}, {"measurement": "CC50", "setting": "[8]; OVCAR-4, ovarian cancer, 48 h, read-out: Log10 LC50 (converted)", "value": "> 100", "unit": "µM"}, {"measurement": "GI50", "setting": "[9]", "value": 0.0151, "unit": "µM"}, {"measurement": "CC50", "setting": "[10]; TK-10, renal cancer, 48 h", "value": "> 100", "unit": "µM"}, {"measurement": "IC (TGI)", "setting": "[10]; TK-10, renal cancer, 48 h, read-out: Log10 TGI", "value": "> 100", "unit": "µM"}, {"measurement": "GI50", "setting": "[11]; [27]", "value": 0.024, "unit": "µM"}, {"measurement": "CC50", "setting": "[11]; [28]", "value": "> 100", "unit": "µM"}, {"measurement": "CC50", "setting": "[12]; Homo sapiens, DU-145, 48 h; read-out: Log10 LC50 (converted)", "value": "> 100", "unit": "µM"}, {"measurement": "GI50", "setting": "[13]; [27]", "value": "< 0.01", "unit": "µM"}, {"measurement": "CC50", "setting": "[13]; [28]", "value": "> 100", "unit": "µM"}, {"measurement": "IC50", "setting": "[14]", "value": 0.0019, "unit": "µM"}, {"measurement": "GI50", "setting": "[15]; MOLT-4, 48 h, read-out: Log10 GI50 (converted)", "value": "< 0.01", "unit": "µM"}, {"measurement": "CC50", "setting": "[15]; [29]", "value": "> 100", "unit": "µM"}, {"measurement": "CC50", "setting": "[15]; [30]", "value": "> 100", "unit": "µM"}, {"measurement": "IC50", "setting": "[15]", "value": "< 0.1", "unit": "µM"}, {"measurement": "GI50", "setting": "[16]; [27]", "value": "< 0.01", "unit": "µM"}, {"measurement": "CC50", "setting": "[16]", "value": "> 100", "unit": "µM"}]}, {"smiles": "C[C@H]1[C@@H](F)O[C@@H]2O[C@@]3(C)CC[C@H]4[C@H](C)CC[C@@H]1[C@@]24OO3", "note": "[Compound VI, 10β-Fluoro-10-deoxoartemisinin]", "values": [{"measurement": "CC50", "setting": "[1]; leukemia", "value": "> 100", "unit": "µM"}, {"measurement": "IC (TGI)", "setting": "[5]; [31]", "value": "> 100", "unit": "µM"}, {"measurement": "CC50", "setting": "[6]; HT-29, 48 h, read-out: Log10 LC50 (converted)", "value": "> 100", "unit": "µM"}, {"measurement": "IC (TGI)", "setting": "[6]; HT-29, printed H129, colon cancer, 48 h, read-out: Log10 TGI", "value": "> 100", "unit": "µM"}, {"measurement": "CC50", "setting": "[17]; SF-295, 48 h, read-out: Log10 LC50 (converted)", "value": "> 100", "unit": "µM"}, {"measurement": "GI50", "setting": "[17]; SF-295, CNS cancer, 48 h, read-out: Log10 GI50 (converted)", "value": 17, "unit": "µM"}, {"measurement": "IC (TGI)", "setting": "[17]; SF-295, CNS cancer, 48 h, read-out: Log10 TGI", "value": "> 100", "unit": "µM"}, {"measurement": "CC50", "setting": "[18]", "value": "> 100", "unit": "µM"}, {"measurement": "GI50", "setting": "[19]; [27]", "value": 2.34, "unit": "µM"}, {"measurement": "IC (TGI)", "setting": "[19]; read-out: Log10 TGI", "value": "> 100", "unit": "µM"}, {"measurement": "CC50", "setting": "[20]", "value": "> 100", "unit": "µM"}, {"measurement": "CC50", "setting": "[21]; OVCAR-5, 48 h, read-out: Log10 LC50 (converted)", "value": "> 100", "unit": "µM"}, {"measurement": "GI50", "setting": "[21]; OVCAR-5, ovarian cancer, 48 h, read-out: Log10 GI50 (converted)", "value": 17, "unit": "µM"}, {"measurement": "IC (TGI)", "setting": "[21]; OVCAR-5, ovarian cancer, 48 h, read-out: Log10 TGI (converted)", "value": "> 100", "unit": "µM"}, {"measurement": "CC50", "setting": "[22]; RXF 393, 48 h, read-out: Log10 LC50 (converted)", "value": "> 100", "unit": "µM"}, {"measurement": "IC (TGI)", "setting": "[22]; RXF 393, renal cancer, 48 h, read-out: Log10 TGI", "value": "> 100", "unit": "µM"}, {"measurement": "CC50", "setting": "[10]; TK-10, 48 h", "value": "> 100", "unit": "µM"}, {"measurement": "CC50", "setting": "[12]; Homo sapiens, DU-145, 48 h, read-out: Log10 LC50 (converted)", "value": "> 100", "unit": "µM"}, {"measurement": "GI50", "setting": "[12]; Homo sapiens, DU-145, 48 h; read-out: Log10 GI50 (converted)", "value": 19.5, "unit": "µM"}, {"measurement": "IC (TGI)", "setting": "[12]; Homo sapiens, DU-145, 48 h; read-out: Log10 TGI", "value": "> 100", "unit": "µM"}, {"measurement": "CC50", "setting": "[23]; MCF7, 48 h, read-out: Log10 LC50 (converted)", "value": "> 100", "unit": "µM"}, {"measurement": "IC (TGI)", "setting": "[23]; MCF7/ADR-RES, breast cancer, 48 h, read-out: Log10 TGI", "value": "> 100", "unit": "µM"}, {"measurement": "GI50", "setting": "[24]; [27]", "value": 13.2, "unit": "µM"}, {"measurement": "CC50", "setting": "[24]; [28]", "value": "> 100", "unit": "µM"}, {"measurement": "CC50", "setting": "[25]; [28]", "value": "> 100", "unit": "µM"}, {"measurement": "IC (TGI)", "setting": "[25]; [31]", "value": 21.4, "unit": "µM"}, {"measurement": "CC50", "setting": "[15]; [29]", "value": "> 100", "unit": "µM"}, {"measurement": "CC50", "setting": "[15]; [30]", "value": "> 100", "unit": "µM"}, {"measurement": "IC50", "setting": "[15]", "value": "~0.1", "unit": "µM"}, {"measurement": "CC50", "setting": "[26]; [28]", "value": "> 100", "unit": "µM"}, {"measurement": "IC (TGI)", "setting": "[26]; read-out: Log10 TGI", "value": "> 100", "unit": "µM"}, {"measurement": "CC50", "setting": "[16]", "value": "> 100", "unit": "µM"}]}]}
